Laboratory results taken from the supplement of paper PMC9663587.

How the values were obtained:
Test in all cases: increase in dead-cell fraction, 72 h; higher = more death;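 further: breast cancer cell lines in 384-well plates, stained with Hoechst plus LIVE/DEAD far red dye and imaged, cells above an LDR intensity threshold counted dead, Hoechst-negative corpses included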
YKL-5-124 = compound: C=CC(=O)Nc1ccc(C(=O)Nc2[nH]nc3c2CN(C(=O)N[C@H](CN(C)C)c2ccccc2)C3(C)C)cc1 [YKL-5-124]
BSJ-03-123 = compound: CC(=O)c1c(C)c2cnc(Nc3ccc(N4CCN(CCOCCOCCOCCNC(=O)COc5cccc6c5C(=O)N(C5CCC(=O)NC5=O)C6=O)CC4)cn3)nc2n(C2CCCC2)c1=O [BSJ-03-123]
[1] = compound: CC(=O)c1c(C)c2cnc(Nc3ccc(N4CCNCC4)cn3)nc2n(C2CCCC2)c1=O
[2] = compound: CCN1CCN(Cc2ccc(Nc3ncc(F)c(-c4cc(F)c5nc(C)n(C(C)C)c5c4)n3)nc2)CC1
Neratinib/HKI272 = compound: CCOc1cc2ncc(C#N)c(Nc3ccc(OCc4ccccn4)c(Cl)c3)c2cc1NC(=O)/C=C/CN(C)C [Neratinib/HKI272]
[3] = compound: CCc1cnn2c(NCc3ccc[n+]([O-])c3)cc(N3CCCC[C@H]3CCO)nc12

CAL851
increase in dead-cell fraction (YKL-5-124; 0.001 µM): 0.0613
increase in dead-cell fraction (YKL-5-124; 0.003162 µM): 0.0965
increase in dead-cell fraction (YKL-5-124; 0.01 µM): 0.0961
increase in dead-cell fraction (YKL-5-124; 0.03162 µM): 0.1
increase in dead-cell fraction (YKL-5-124; 0.1 µM): 0.12
increase in dead-cell fraction (YKL-5-124; 0.3162 µM): 0.15
increase in dead-cell fraction (YKL-5-124; 1 µM): 0.096
increase in dead-cell fraction (YKL-5-124; 3.162 µM): 0.12
increase in dead-cell fraction (YKL-5-124; 10 µM): 0.402
increase in dead-cell fraction (BSJ-03-123; 0.001 µM): -0.0043
increase in dead-cell fraction (BSJ-03-123; 0.003162 µM): -0.0029
increase in dead-cell fraction (BSJ-03-123; 0.01 µM): -0.0014
increase in dead-cell fraction (BSJ-03-123; 0.03162 µM): 0.0058
increase in dead-cell fraction (BSJ-03-123; 0.1 µM): 0.007
increase in dead-cell fraction (BSJ-03-123; 0.3162 µM): 0.0046
increase in dead-cell fraction (BSJ-03-123; 1 µM): 0.0134
increase in dead-cell fraction (BSJ-03-123; 3.162 µM): 0.0379
increase in dead-cell fraction (BSJ-03-123; 10 µM): 0.0921
increase in dead-cell fraction ([1]; 0.0003162 µM): 0.0002
increase in dead-cell fraction ([1]; 0.001 µM): 0.0074
increase in dead-cell fraction ([1]; 0.003162 µM): -0.0015
increase in dead-cell fraction ([1]; 0.01 µM): -0.0049
increase in dead-cell fraction ([1]; 0.03162 µM): -0.0041
increase in dead-cell fraction ([1]; 0.1 µM): 0.0052
increase in dead-cell fraction ([1]; 0.3162 µM): -0.004
increase in dead-cell fraction ([1]; 1 µM): -0.0071
increase in dead-cell fraction ([1]; 3.162 µM): -0.006
increase in dead-cell fraction ([2]; 0.001 µM): -0.0049
increase in dead-cell fraction ([2]; 0.003162 µM): -0.0095
increase in dead-cell fraction ([2]; 0.01 µM): -0.0073
increase in dead-cell fraction ([2]; 0.03162 µM): -0.0136
increase in dead-cell fraction ([2]; 0.1 µM): -0.0173
increase in dead-cell fraction ([2]; 0.3162 µM): -0.0161
increase in dead-cell fraction ([2]; 1 µM): 0.0209
increase in dead-cell fraction ([2]; 3.162 µM): 0.211
increase in dead-cell fraction ([2]; 10 µM): 0.266
increase in dead-cell fraction (Neratinib/HKI272; 0.0003162 µM): -0.0016
increase in dead-cell fraction (Neratinib/HKI272; 0.001 µM): 0.0027
increase in dead-cell fraction (Neratinib/HKI272; 0.003162 µM): 0.006
increase in dead-cell fraction (Neratinib/HKI272; 0.01 µM): 0.0409
increase in dead-cell fraction (Neratinib/HKI272; 0.03162 µM): 0.113
increase in dead-cell fraction (Neratinib/HKI272; 0.1 µM): 0.199
increase in dead-cell fraction (Neratinib/HKI272; 0.3162 µM): 0.29
increase in dead-cell fraction (Neratinib/HKI272; 1 µM): 0.344
increase in dead-cell fraction (Neratinib/HKI272; 3.162 µM): 0.542
increase in dead-cell fraction ([3]; 0.0001 µM): -0.007
increase in dead-cell fraction ([3]; 0.0003162 µM): -0.005
increase in dead-cell fraction ([3]; 0.001 µM): 0.003
increase in dead-cell fraction ([3]; 0.003162 µM): 0.0409
increase in dead-cell fraction ([3]; 0.01 µM): 0.2
increase in dead-cell fraction ([3]; 0.03162 µM): 0.147
increase in dead-cell fraction ([3]; 0.1 µM): 0.205
increase in dead-cell fraction ([3]; 0.3162 µM): 0.22
increase in dead-cell fraction ([3]; 1 µM): 0.217
